Consider 20 molecules from US20180370927A1, “MICROBIOCIDAL OXADIAZOLE DERIVATIVES” (SYNGENTA PARTICIPATIONS AG, priority 2015, published 2018).

Assay [1] deals with Puccinia recondita f. Sp. Tritici. Description: Puccinia recondita f. sp. tritici / wheat / leaf disc preventative (brown rust). To be noted: foliar, 200 ppm in the applied formulation, wheat leaf segments, preventative, assessed 7 to 9 days after application, read-out: disease control compared to untreated control leaf disks. It counts as in vivo. As for the experimental part:
(§1) Leaf disks or leaf segments of various plant species are cut from plants grown in a greenhouse. The cut leaf disks or segments are placed in multiwell plates (24-well format) onto water agar. The leaf disks are sprayed with a test solution before (preventative) or after (curative) inoculation. Compounds to be tested are prepared as DMSO solutions (max. 10 mg/mL) which are diluted to the appropriate concentration with 0.025% Tween20 just before spraying. The inoculated leaf disks or segments are incubated under defined conditions (temperature, relative humidity, light, etc.) according to the respective test system. A single evaluation of disease level is carried out 3 to 14 days after inoculation, depending on the pathosystem. Percent disease control relative to the untreated check leaf disks or segments is then calculated.
Example 1: Fungicidal Activity Against Puccinia recondita f. Sp. Tritici/Wheat/Leaf Disc Preventative (Brown Rust)
Wheat leaf segments cv. Kanzler were placed on agar in multiwell plates (24-well format) and sprayed with the formulated test compound diluted in water. The leaf disks were inoculated with a spore suspension of the fungus 1 day after application. The inoculated leaf segments were incubated at 19° C. and 75% relative humidity (rh) under a light regime of 12 hours light/12 hours darkness in a climate cabinet and the activity of a compound was assessed as percent disease control compared to untreated when an appropriate level of disease damage appears in untreated check leaf segments (7 to 9 days after application).
(§2) The following compounds at 200 ppm in the applied formulation give at least 80% disease control in this test when compared to untreated control leaf disks under the same conditions, which show extensive disease development.

Assay [2] has the same test system. The assay can be described thus: Puccinia recondita f. sp. tritici / wheat / leaf disc curative (brown rust). It is filed as in vivo. To be noted: foliar, 200 ppm in the applied formulation, wheat leaf segments, curative (applied 1 day after inoculation), assessed 6 to 8 days after application, read-out: disease control compared to untreated control leaf disks. Here is the method: as §1
Example 2: Fungicidal Activity Against Puccinia recondita f. Sp. Tritici/Wheat/Leaf Disc Curative (Brown Rust)
Wheat leaf segments cv. Kanzler are placed on agar in multiwell plates (24-well format). The leaf segments are then inoculated with a spore suspension of the fungus. Plates were stored in darkness at 19° C. and 75% relative humidity. The formulated test compound diluted in water was applied 1 day after inoculation. The leaf segments were incubated at 19° C. and 75% relative humidity under a light regime of 12 hours light/12 hours darkness in a climate cabinet and the activity of a compound was assessed as percent disease control compared to untreated when an appropriate level of disease damage appears in untreated check leaf segments (6 to 8 days after application).
as §2

Assay [3] has as its system Glomerella lacenarium (Colletotrichum lacenarium). The assay can be described thus: Glomerella lacenarium (Colletotrichum lacenarium) liquid culture / cucumber / preventative (anthracnose). It is filed as cell-based. Particulars: 20 ppm in the applied formulation, liquid culture in PDB, 24° C., 3 to 4 days after application, read-out: disease control (inhibition of growth, photometric) compared to untreated control. Here is the method: Mycelia fragments or conidia suspensions of a fungus prepared either freshly from liquid cultures of the fungus or from cryogenic storage, are directly mixed into nutrient broth. DMSO solutions of the test compound (max. 10 mg/ml) are diluted with 0.025% Tween20 by a factor of 50 and 10 μL of this solution is pipetted into a microtiter plate (96-well format). The nutrient broth containing the fungal spores/mycelia fragments is then added to give an end concentration of the tested compound. The test plates are incubated in the dark at 24° C. and 96% relative humidity. The inhibition of fungal growth is determined photometrically after 2 to 7 days, depending on the pathosystem, and percent antifungal activity relative to the untreated check is calculated.
Example 4: Fungicidal Activity Against Glomerella lacenarium (Colletotrichum lacenarium) Liquid Culture/Cucumber/Preventative (Anthracnose)
Conidia of the fungus from cryogenic storage are directly mixed into nutrient broth (PDB—potato dextrose broth). After placing a (DMSO) solution of test compound into a microtiter plate (96-well format), the nutrient broth containing the fungal spores is added. The test plates are incubated at 24° C. and the inhibition of growth is measured photometrically 3 to 4 days after application.
The following compounds at 20 ppm in the applied formulation give at least 80% disease control in this test when compared to untreated control under the same conditions, which show extensive disease development.

With `CC(=O)C(=O)NCc1ccc(-c2noc(C(F)(F)F)n2)c(F)c1F` [Compound 1.27, N-[[2,3-difluoro-4-[5-(trifluoromethyl)-1,2,4-oxadiazol-3-yl]phenyl]methyl]-2-oxo-propanamide], the pest or weed control at 200 ppm in assay [1] and in assay [2] was at least 80% each time. Also, the inhibition at 20 ppm in assay [3] is at least 80%.

As to `CON(Cc1ccc(-c2noc(C(F)(F)F)n2)cc1)C(=O)C(=O)NCC(C)(C)C` [Compound 4.62, N-(2,2-dimethylpropyl)-N′-methoxy-N′-[[4-[5-(trifluoromethyl)-1,2,4-oxadiazol-3-yl]phenyl]methyl] oxamide], the pest or weed control at 200 ppm in assay [1] and in assay [2] was at least 80% each time. Also, in assay [3], the inhibition at 20 ppm is at least 80%.

In the case of `CC(=O)C(=O)N(Cc1ccc(-c2noc(C(F)(F)F)n2)cc1)CC1CCCO1` (stereo not shown) [Compound 1.14, 2-oxo-N-(tetrahydrofuran-2-ylmethyl)-N-[[4-[5-(trifluoromethyl)-1,2,4-oxadiazol-3-yl]phenyl]methyl]propanamide], the pest or weed control at 200 ppm in assay [1] and in assay [2] was at least 80% throughout. For the same molecule, the inhibition at 20 ppm in assay [3] is at least 80%.

On to `CON(Cc1ccc(-c2noc(C(F)(F)F)n2)cc1)C(=O)C(=O)NCC(C)C` [Compound 4.67, N-isobutyl-N′-methoxy-N′-[[4-[5-(trifluoromethyl)-1,2,4-oxadiazol-3-yl]phenyl]methyl] oxamide], for which the pest or weed control at 200 ppm in assay [1] and in assay [2] was at least 80% in each case. For the same molecule, in assay [3], the inhibition at 20 ppm was at least 80%.

As for `CONC(=O)C(=O)N(C)Cc1ccc(-c2noc(C(F)(F)F)n2)cc1` [Compound 4.102, N-methoxy-N′-methyl-N′-[[4-[5-(trifluoromethyl)-1,2,4-oxadiazol-3-yl]phenyl]methyl] oxamide], the pest or weed control at 200 ppm in assay [1] and in assay [2] was at least 80% throughout. Also, the inhibition at 20 ppm in assay [3] was at least 80%.

In the case of `CON(Cc1ccc(-c2noc(C(F)(F)F)n2)cc1)C(=O)C(=O)OC1COC1` [Compound 3.3, oxetan-3-yl 2-[methoxy-[[4-[5-(trifluoromethyl)-1,2,4-oxadiazol-3-yl]phenyl]methyl]amino]-2-oxo-acetate], the pest or weed control at 200 ppm in assay [1] and in assay [2] was at least 80% each time. Moreover, the inhibition at 20 ppm in assay [3] was at least 80%.

On to `CN(C)C(=O)C(=O)Nc1ccc(-c2noc(C(F)(F)F)n2)cn1` [Compound 4.10, N′,N′-dimethyl-N-[5-[5-(trifluoromethyl)-1,2,4-oxadiazol-3-yl]-2-pyridyl] oxamide], for which the pest or weed control at 200 ppm in assay [1] and in assay [2] was at least 80% in each case.

On to `CON(Cc1ccc(-c2noc(C(F)(F)F)n2)cc1)C(=O)C(=O)NC(C)(C)C` [Compound 4.75, N-tert-butyl-N′-methoxy-N′-[[4-[5-(trifluoromethyl)-1,2,4-oxadiazol-3-yl]phenyl]methyl] oxamide], for which the pest or weed control at 200 ppm in assay [1] and in assay [2] was at least 80% in each case. In addition, in assay [3], the inhibition at 20 ppm was at least 80%.

Turning to `CNC(=O)C(=O)N(C)Cc1ccc(-c2noc(C(F)(F)F)n2)cc1` [Compound 4.99, N,N′-dimethyl-N′-[[4-[5-(trifluoromethyl)-1,2,4-oxadiazol-3-yl]phenyl]methyl] oxamide], the pest or weed control at 200 ppm in assay [1] and in assay [2] was at least 80% in each case. Besides, in assay [3], the inhibition at 20 ppm was at least 80%.

Consider `COC(=O)C(=O)N(Cc1ccc(-c2noc(C(F)(F)F)n2)cc1)OC` [Compound 3.2, methyl 2-[methoxy-[[4[5-(trifluoromethyl)-1,2,4-oxadiazol-3-yl]phenyl]methyl]amino]-2-oxo-acetate], for which the pest or weed control at 200 ppm in assay [1] and in assay [2] was at least 80% in each case. The inhibition at 20 ppm in assay [3] is at least 80%.

Consider `COCCN(Cc1ccc(-c2noc(C(F)(F)F)n2)cc1)C(=O)C(N)=O` [Compound 4.12, N′-(2-methoxyethyl)-N′-[[4-[5-(trifluoromethyl)-1,2,4-oxadiazol-3-yl]phenyl]methyl] oxamide], for which the pest or weed control at 200 ppm in assay [1] and in assay [2] was at least 80% in each case. Besides, the inhibition at 20 ppm in assay [3] was at least 80%.

With `CC(=O)C(=O)NCc1ccc(-c2noc(C(F)(F)F)n2)c(F)c1` [Compound 1.25, N-[[3-fluoro-4-[5-(trifluoromethyl)-1,2,4-oxadiazol-3-yl]phenyl]methyl]-2-oxo-propanamide], the pest or weed control at 200 ppm in assay [1] and in assay [2] was at least 80% each time. Also, in assay [3], the inhibition at 20 ppm is at least 80%.

On to `CC(=O)C(=O)NCc1ccc(-c2noc(C(F)(F)F)n2)cc1F` [Compound 1.26, N-[[2-fluoro-4-[5-(trifluoromethyl)-1,2,4-oxadiazol-3-yl]phenyl]methyl]-2-oxo-propanamide], for which the pest or weed control at 200 ppm in assay [1] and in assay [2] was at least 80% each time. Moreover, in assay [3], the inhibition at 20 ppm was at least 80%.

Turning to `COC(CN(C)C(=O)C(=O)Nc1ccc(-c2noc(C(F)(F)F)n2)cc1)OC` [Compound 4.21, N′-(2,2-dimethoxyethyl)-N'-methyl-N-[4-[5-(trifluoromethyl)-1,2,4-oxadiazol-3-yl]phenyl] oxamide], the pest or weed control at 200 ppm in assay [1] and in assay [2] was at least 80% throughout. The inhibition at 20 ppm in assay [3] was at least 80%.

For `CCC(C)NC(=O)C(=O)N(Cc1ccc(-c2noc(C(F)(F)F)n2)cc1)OC` (stereo not shown) [Compound 4.61, N′-methoxy-N-sec-butyl-N′-[[4-[5-(trifluoromethyl)-1,2,4-oxadiazol-3-yl]phenyl]methyl] oxamide], the pest or weed control at 200 ppm in assay [1] and in assay [2] was at least 80% in each case. In assay [3], the inhibition at 20 ppm was at least 80%.

Take `CCOC(=O)C(=O)N(Cc1ccc(-c2noc(C(F)(F)F)n2)cc1)OC` [Compound 3.10, ethyl 2-[methoxy-[[4-[5-(trifluoromethyl)-1,2,4-oxadiazol-3-yl]phenyl]methyl]amino]-2-oxo-acetate]: the pest or weed control at 200 ppm in assay [1] and in assay [2] was at least 80% in each case. In addition, the inhibition at 20 ppm in assay [3] is at least 80%.

Turning to `CON(Cc1ccc(-c2noc(C(F)(F)F)n2)cc1)C(=O)C(=O)O` [Compound 3.7, 2-[methoxy-[[4-[5-(trifluoromethyl)-1,2,4-oxadiazol-3-yl]phenyl]methyl]amino]-2-oxo-acetic acid], in assay [2], the pest or weed control at 200 ppm was at least 80%. Also, the inhibition at 20 ppm in assay [3] is at least 80%.

As to `CC(C)(CS(C)(=O)=O)NC(=O)C(=O)Nc1ccc(-c2noc(C(F)(F)F)n2)cc1` [Compound 4.17], the pest or weed control at 200 ppm in assay [1] and in assay [2] was at least 80% throughout.

On to `CC(=O)C(=O)N(Cc1ccc(-c2noc(C(F)(F)F)n2)cc1)OCC=C(Cl)Cl` [Compound 1.22, N-(3,3-dichloro-allyloxy)-2-oxo-N-[[4-[5-(trifluoromethyl)-1,2,4-oxadiazol-3-yl]phenyl]methyl]propanamide], for which, in assay [1], the pest or weed control at 200 ppm is at least 80%. The inhibition at 20 ppm in assay [3] was at least 80%.

As for `CON(Cc1ccc(-c2noc(C(F)(F)F)n2)cc1)C(=O)C(=O)NC1CCCCC1` [Compound 4.63, N-cyclohexyl-N′-methoxy-N′-[[4-[5-(trifluoromethyl)-1,2,4-oxadiazol-3-yl]phenyl]methyl] oxamide], the pest or weed control at 200 ppm in assay [1] is at least 80%. The inhibition at 20 ppm in assay [3] was at least 80%.
